Measured values: patent US12011444B2, “N-substituted indole derivatives as PGE2 receptor modulators” (Idorsia Pharmaceuticals Ltd, priority 2015, dated 2024)

Experiments:
[1] = biological target: EP4 (Homo sapiens (Human), UniProt P35408); assay: hEP4 cAMP assay (BT549 breast cancer cells, HTRF cAMP); assay type: cell-based
Procedure: Plate is pre-incubated 45 minutes at room temperature. Subsequently, 2.5 microliters of PGE2 (final conc. 6 nM) are transferred into the assay plate. Plate is incubated 30 minutes at room temperature.

[2] = biological target: EP2 (Homo sapiens (Human), UniProt P43116);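 also: antagonism of PGE2-stimulated cAMP accumulation in SF295 human glioblastoma cells with endogenous EP2, cAMP read by HTRF, expressed relative to DMSO control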
[3] = antagonistic activity, mean values where measured multiple times

EP4, sequence (P35408 whole entry): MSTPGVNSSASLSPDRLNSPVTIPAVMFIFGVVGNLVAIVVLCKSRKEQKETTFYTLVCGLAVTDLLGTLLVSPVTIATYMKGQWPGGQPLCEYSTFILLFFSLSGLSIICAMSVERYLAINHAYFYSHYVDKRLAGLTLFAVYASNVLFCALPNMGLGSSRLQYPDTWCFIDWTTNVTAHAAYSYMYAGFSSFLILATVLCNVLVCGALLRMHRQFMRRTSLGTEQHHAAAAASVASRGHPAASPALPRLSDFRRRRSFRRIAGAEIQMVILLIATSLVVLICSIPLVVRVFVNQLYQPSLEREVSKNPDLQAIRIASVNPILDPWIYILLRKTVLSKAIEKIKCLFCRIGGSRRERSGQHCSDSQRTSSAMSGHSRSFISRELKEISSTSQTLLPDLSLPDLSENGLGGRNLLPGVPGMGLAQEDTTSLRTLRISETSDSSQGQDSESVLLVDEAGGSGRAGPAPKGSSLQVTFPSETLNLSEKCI
EP2, sequence (P43116 whole entry): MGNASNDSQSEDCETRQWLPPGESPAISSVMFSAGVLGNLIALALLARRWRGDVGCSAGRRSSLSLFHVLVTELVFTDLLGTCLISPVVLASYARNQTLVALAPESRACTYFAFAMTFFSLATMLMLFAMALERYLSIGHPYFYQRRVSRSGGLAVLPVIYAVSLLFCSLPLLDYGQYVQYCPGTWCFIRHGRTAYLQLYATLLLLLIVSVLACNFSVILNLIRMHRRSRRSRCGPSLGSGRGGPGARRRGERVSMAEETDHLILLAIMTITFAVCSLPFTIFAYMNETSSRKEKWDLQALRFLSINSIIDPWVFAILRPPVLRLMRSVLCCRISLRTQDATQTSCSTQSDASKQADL

Row | Compound | IC50 [1, 3] [nM] | IC50 [2] [nM] | IC50 ([1]; (*): measured using the cAMP assay) [nM]
1 | COc1ccc(F)c2c1cc(C)n2CCNc1cc(-c2ccc(Cn3cccn3)c(F)c2)ncn1 [compound 457] | 480 | 888 | 
2 | COc1cc(F)cc2c1cc(C)n2CCNc1cc(-c2ccc(-c3c[nH]c(C)n3)cc2)ncn1 [compound 581] | 33 | 5 | 
3 | CCOc1cc(-c2cc(NCCn3c(C#N)cc4c(Cl)cc(F)c(F)c43)ncn2)sc1C(=O)O [Example 941, 5-{6-[2-(4-Chloro-2-cyano-6,7-difluoro-indol-1-yl)-ethylamino]-pyrimidin-4-yl}-3-ethoxy-thiophene-2-carboxylic acid] |  | 11 | 29
4 | Cc1nnc(-c2ccc(-c3cc(NCCn4c(C)cc5c(C)ccc(F)c54)ncn3)cc2)o1 [compound 553] | 192 | 102 | 
5 | COc1cc(F)cc2c1cc(C)n2CCNc1cc(-c2ccc(-c3cc(C)no3)cc2)ncn1 [compound 715, [2-(6-Fluoro-4-methoxy-2-methyl-indol-1-yl)-ethyl]-{6-[4-(3-methyl-isoxazol-5-yl)-phenyl]-pyrimidin-4-yl}-amine] | 240 | 16 | 
6 | Cc1cc(F)c(F)c2c1cc(C)n2CCNc1cc(-c2cc(C(F)(F)F)c(C(=O)O)s2)ncn1 [compound 420] | 93 | 95 | 
7 | COc1cc(F)cc2c1cc(C)n2CCNc1cc(-c2ccc(-c3nccs3)cc2)ncn1 [Example 751, [2-(6-Fluoro-4-methoxy-2-methyl-indol-1-yl)-ethyl]-[6-(4-thiazol-2-yl-phenyl)-pyrimidin-4-yl]-amine] | 105 | 8 | 
8 | COc1ccc(F)c2c1cc(C)n2CCNc1cc(-c2ccc(S(N)(=O)=O)c(C(F)(F)F)c2)ncn1 [compound 567, 4-{6-[2-(7-Fluoro-4-methoxy-2-methyl-indol-1-yl)-ethylamino]-pyrimidin-4-yl}-2-trifluoromethyl-benzenesulfonamide] | 89 | 17 | 
9 | COc1cc(F)cc2c1cc(C)n2CCNc1cc(-c2ccc3[nH]ccc3c2)ncn1 [compound 699, [2-(6-Fluoro-4-methoxy-2-methyl-indol-1-yl)-ethyl]-[6-(1H-indol-5-yl)-pyrimidin-4-yl]-amine] | 63 | 9 | 
10 | Cc1cc(F)cc2c1cc(C#N)n2CCNc1cc(-c2ccc(C(=O)O)c(CC(C)C)c2)ncn1 [compound 481] | 112 | 61 | 
11 | Cc1cc(F)cc2c1cc(C)n2CCNc1cc(-c2ccc(-c3ccccn3)cc2)ncn1 [compound 730] | 489 | 30 | 
12 | Cc1ccc(F)c2c1cc(C)n2CCNc1cc(-c2ccc(-n3cncn3)cc2)ncn1 [compound 741, [2-(7-Fluoro-2,4-dimethyl-indol-1-yl)-ethyl]-[6-(4-[1,2,4]triazol-1-yl-phenyl)-pyrimidin-4-yl]-amine] | 505 | 37 | 
13 | Cc1cnoc1-c1ccc(-c2cc(NCCn3c(C)cc4c(C)cc(F)cc43)ncn2)cc1 [compound 734] | 465 | 95 | 
14 | CCCc1cc(-c2cc(NCCn3c(C)cc4c(C)cc(F)cc43)ncn2)cc(Cl)c1C(=O)O [compound 412] | 79 | 36 | 
15 | Cc1cc2c(F)c(F)cc(F)c2n1CCNc1cc(-c2ccc(-c3noc(=O)[nH]3)cc2)ncn1 [compound 682, 3-(4-{6-[2-(4,5,7-Trifluoro-2-methyl-indol-1-yl)-ethylamino]-pyrimidin-4-yl}-phenyl)-4H-[1,2,4]oxadiazol-5-one] | 251 | 12 | 
16 | Cc1cc(F)cc2c1cc(C)n2CCNc1cc(-c2ccc3ccncc3c2)ncn1 [compound 731] | 276 | 36 | 

Row | Compound | IC50 [1, 3] [nM] | IC50 [2] [nM] | IC50 ([1]; (*): measured using the cAMP assay) [nM]
17 | Cc1cc2c(F)cc(F)c(F)c2n1CCNc1cc(-c2ccc(C(=O)O)c(CC(C)C)c2)ncn1 [compound 505] | 671 | 21 | 
18 | COc1cc(F)cc2c1cc(C)n2CCNc1cc(-c2ccc(-c3nc(C(=O)O)cs3)cc2)ncn1 [compound 579] | 41 | 11 | 
19 | COc1cc(-c2cc(NCCn3c(C)cc4ccccc43)ncn2)ccc1-c1nnn[nH]1 [Example 746, {6-[3-Methoxy-4-(1H-tetrazol-5-yl)-phenyl]-pyrimidin-4-yl}-[2-(2-methyl-indol-1-yl)-ethyl]-amine] | 869 | 10 | 
20 | COc1cc(F)cc2c1cc(C)n2CCNc1cc(-c2ccc(-c3coc(C)n3)cc2)ncn1 [compound 585] | 203 | 31 | 
21 | COc1cc(F)cc2c1cc(C)n2CCNc1cc(-c2ccc(-c3nc(C)c(C)s3)cc2)ncn1 [Example 760, {6-[4-(4,5-Dimethyl-thiazol-2-yl)-phenyl]-pyrimidin-4-yl}-[2-(6-fluoro-4-methoxy-2-methyl-indol-1-yl)-ethyl]-amine] | 795 | 90 | 
22 | COc1ccc(F)c2c1cc(C)n2CCNc1cc(-c2ccc(N3CCCS3(=O)=O)cc2)ncn1 [compound 469] | 667 | 68 | 
23 | COc1cc(F)cc2c1cc(C)n2CCNc1cc(-c2cccc(-n3cccn3)c2)ncn1 [compound 726] | 388 | 41 | 
24 | Cc1cc2ccccc2n1CCNc1cc(-c2ccc(-c3nccs3)cc2)ncn1 [Example 764, [2-(2-Methyl-indol-1-yl)-ethyl]-[6-(4-thiazol-2-yl-phenyl)-pyrimidin-4-yl]-amine] | 815 | 8 | 
25 | Cc1cc(F)cc2c1cc(C)n2CCNc1cc(-c2ccc(-c3cncn3C)cc2)ncn1 [compound 547] | 232 | 63 | 
26 | COc1ccc(F)c2c1cc(C)n2CCNc1cc(-c2ccc(-c3cnc(N)o3)cc2)ncn1 [compound 573] | 21 | 7 | 
27 | COc1cc(F)cc2c1cc(C)n2CCNc1cc(-c2ccc(-c3cc(C)[nH]n3)cc2)ncn1 [compound 583] | 65 | 10 | 
28 | COc1cc(F)cc2c1cc(C)n2CCNc1cc(-c2ccc(-c3ccccn3)cc2)ncn1 [compound 727] | 238 | 34 | 
29 | CCOc1cc(-c2cc(NCCn3c(C)cc4c(C)ccc(F)c43)ncn2)ccc1C(=O)NOCc1ccccc1 [Example 768, N-Benzyloxy-2-ethoxy-4-{6-[2-(7-fluoro-2,4-dimethyl-indol-1-yl)-ethylamino]-pyrimidin-4-yl}-benzamide] | 928 | 35 | 
30 | COc1cc(-c2cc(NCCn3c(C)cc4c(F)ccc(F)c43)ncn2)ccc1-c1nnn[nH]1 [Example 747, [2-(4,7-Difluoro-2-methyl-indol-1-yl)-ethyl]-{6-[3-methoxy-4-(1H-tetrazol-5-yl)-phenyl]-pyrimidin-4-yl}-amine] | 318 | 3 | 
31 | Cc1cc(F)cc2c1cc(C)n2CCNc1cc(-c2ccc(-c3nnc(N)s3)cc2)ncn1 [compound 569] | 77 | 17 | 

The next lines start with the values.

Row | IC50 [1, 3] [nM] | IC50 [2] [nM] | IC50 ([1]; (*): measured using the cAMP assay) [nM] | Compound
32 | 13 | 2 |  | CCNc1cc(-c2cc(NCCn3c(C)cc4c(OC)ccc(F)c43)ncn2)ccc1-c1nnn[nH]1 [compound 665, {6-[3-Ethylamino-4-(1H-tetrazol-5-yl)-phenyl]-pyrimidin-4-yl}-[2-(7-fluoro-4-methoxy-2-methyl-indol-1-yl)-ethyl]-amine]
33 | 251 | 20 |  | CCONC(=O)c1ccc(-c2cc(NCCn3c(C)cc4c(OC)ccc(F)c43)ncn2)cc1OCC [Example 767, 2,N-Diethoxy-4-{6-[2-(7-fluoro-4-methoxy-2-methyl-indol-1-yl)-ethylamino]-pyrimidin-4-yl}-benzamide]
34 | 191 | 51 |  | CCOc1cc(-c2cc(NCCn3c(C)cc4c(C)cc(F)c(F)c43)ncn2)ccc1C(=O)O [compound 431]
35 | 254 | 89 |  | CCCOc1cc(-c2cc(NCCn3c(C)cc4c(C)cc(F)c(F)c43)ncn2)cc(Cl)c1C(=O)O [compound 628]
36 | 42 | 190 |  | COc1ccc(F)c2c1cc(C)n2CCNc1cc(-c2ccc(-c3cc(C(=O)O)[nH]n3)cc2)ncn1 [compound 594]
37 | 350 | 21 |  | CCCOc1cc(-c2cc(NCCn3c(C)cc4c(OC)ccc(Cl)c43)ncn2)ccc1C(=O)O [compound 495]
38 | 729 | 21 |  | CCOc1cc(-c2cc(NCCn3c(C)cc4c(C)c(F)c(F)cc43)ncn2)ccc1C(=O)O [Example 787, 4-{6-[2-(5,6-Difluoro-2,4-dimethyl-indol-1-yl)-ethylamino]-pyrimidin-4-yl}-2-ethoxy-benzoic acid]
39 | 182 | 19 |  | COc1cc(-c2cc(NCCn3c(C)cc4c(OC)ccc(F)c43)ncn2)cc(Cl)c1C(=O)O [compound 401]
40 | 471 | 36 |  | COc1cc(-c2cc(NCCn3c(C)cc4c(OC)ccc(Cl)c43)ncn2)ccc1-c1nnn[nH]1 [compound 684, [2-(7-Chloro-4-methoxy-2-methyl-indol-1-yl)-ethyl]-{6-[3-methoxy-4-(1H-tetrazol-5-yl)-phenyl]-pyrimidin-4-yl}-amine]
41 | 34 | 5 |  | CCCc1cc(-c2cc(NCCn3c(C)cc4c(OC)cc(F)cc43)ncn2)cc(Cl)c1C(=O)O [compound 519]
42 | 229 | 33 |  | CCCN1Cc2cc(-c3cc(NCCn4c(C)cc5c(OC)ccc(F)c54)ncn3)ccc2C1=O [compound 466, 5-{6-[2-(7-Fluoro-4-methoxy-2-methyl-indol-1-yl)-ethylamino]-pyrimidin-4-yl}-2-propyl-2,3-dihydro-isoindol-1-one]
43 | 319 | 14 |  | Cc1cc(F)cc2c1cc(C)n2CCNc1cc(-c2ccc(C(=O)O)c(OC(F)F)c2)ncn1 [compound 600]
44 | 35 | 5 |  | COc1ccc(F)c2c1cc(C)n2CCNc1cc(-c2cc(Cl)c(C(=O)O)c(OCC(C)C)c2)ncn1 [compound 690]
45 | 261 | 64 |  | COc1c(F)ccc2c1cc(C)n2CCNc1cc(-c2ccc(C(=O)O)c(CC(C)C)c2)ncn1 [compound 538]
46 | 69 | 8 |  | CCCc1cc(-c2cc(NCCn3c(C)cc4c(OC)ccc(F)c43)ncn2)cc(F)c1C(=O)O [compound 515]
